Experimental data: patent US11753407B2, “Compounds for treating spinal muscular atrophy” (PTC Therapeutics, Inc., priority 2012, dated 2023)

Assays:
[1] = test system: SMN2 minigene mRNA (SMN2-A minigene) in HEK293H cells; assay: SMN2 minigene mRNA splicing RT-qPCR assay in cultured cells; type: cell-based, human; settings: Homo sapiens, HEK293-H; concentration increasing full length SMN2 mRNA 1.5-fold relative to vehicle-treated cells; HEK293H cells with SMN2-A minigene, 24 hours, 7-point concentration data; read-out: EC1.5x for production of full length SMN2 mRNA
Protocol: The reverse transcription-quantitative PCR-based (RT-qPCR) assay is used to quantify the level of the full length SMN2 minigene mRNA containing SMN2 exon 7 in a HEK293H cell line stably transfected with said minigene and treated with a test compound.
Protocol. HEK293H cells stably transfected with the SMN2-A minigene construct described above (10,000 cells/well) are seeded in 200 μL of cell culture medium (DMEM plus 10% FBS, with 200 μg/mL hygromycin) in 96-well flat-bottom plates and the plate is immediately swirled to ensure proper dispersal of cells, forming an even monolayer of cells. Cells are allowed to attach for at least 4-6 hours. Test compounds are serially diluted 3.16-fold in 100% DMSO to generate a 7-point concentration curve. A solution of test compound (1 μL, 200× in DMSO) is added to each cell-containing well and the plate is incubated for 24 hours in a cell culture incubator (37° C., 5% CO2, 100% relative humidity). 2 replicates are prepared for each test compound concentration. The cells are then lysed in Cells-To-Ct lysis buffer and the lysate is stored at −80° C.
Primer SMN Forward A (SEQ ID NO. 1) hybridizes to a nucleotide sequence in exon 7 (nucleotide 22 to nucleotide 40), primer SMN Reverse A (SEQ ID NO. 2) hybridizes to a nucleotide sequence in the coding sequence of Firefly luciferase, SMN Probe A (SEQ ID NO. 3) hybridizes to a nucleotide sequence in exon 7 (nucleotide 50 to nucleotide 54) and exon 8 (nucleotide 1 to nucleotide 21). The combination of these three oligonucleotides detects only SMN1 or SMN2 minigenes (RT-qPCR) and will not detect endogenous SMN1 or SMN2 genes.
The SMN forward and reverse primers are used at final concentrations of 0.4 μM. The SMN probe is used at a final concentration of 0.15 μM. The GAPDH primers are used at final concentrations of 0.2 μM and the probe at 0.15 μM.
The SMN2-minigene GAPDH mix (15 μL total volume) is prepared by combining 7.5 μL of 2× RT-PCR buffer, 0.4 μL of 25× RT-PCR enzyme mix, 0.75 μL of 20× GAPDH primer-probe mix, 4.0075 μL of water, 2 μL of 10-fold diluted cell lysate, 0.06 μL of 100 μM SMN forward primer, 0.06 μL of 100 μM SMN reverse primer, and […].
PCR is carried out at the following temperatures for the indicated time: Step 1: 48° C. (15 min); Step 2: 95° C. (10 min); Step 3: 95° C. (15 sec); Step 4: 60° C. (1 min); then repeat Steps 3 and 4 for a total of 40 cycles.
Each reaction mixture contains both SMN2-A minigene and GAPDH primers/probe sets (multiplex design), allowing simultaneous measurement of the levels of two transcripts.
Two SMN spliced products are generated from the SMN2 minigene. The first spliced product containing exon 7, corresponding to full length SMN2 mRNA, is referred to herein using the term “SMN2 minigene FL.” The second spliced product lacking exon 7 is referred to herein using the term “SMN2 minigene Δ7.”
The increase of SMN2 minigene FL mRNA relative to that in cells treated with vehicle control is determined from real-time PCR data using a modified ΔΔCt method (as described in Livak and Schmittgen, Methods, 2001, 25:402-8). The amplification efficiency (E) is calculated from the slope of the amplification curve for SMN2 minigene FL and GAPDH individually. The abundances of SMN2 minigene FL and GAPDH are then calculated as (1+E)^−Ct, where Ct is the threshold value for each amplicon. The abundance of SMN2 minigene FL is normalized to GAPDH abundance. The normalized SMN2 minigene FL abundance from test compound-treated samples is then divided by normalized SMN2 minigene FL abundance from vehicle-treated cells to determine the level of SMN2 FL mRNA relative to vehicle control.
For compounds of Formula (I) or a form thereof disclosed herein, Table 4 provides the […] for production of full length SMN2 mRNA that was obtained from the 7-point concentration data generated for each test compound according to the procedure of Biological Example 2. […]

[2] = test system: Smn protein in SMA patient fibroblast cells (GM03813); assay: Smn protein assay in cultured cells (SMN HTRF); type: cell-based, human; settings: SMA patient fibroblast cells, 48 hours; for EC1.5x for Smn protein expression: 7-point concentration curve, SMN HTRF, concentration producing 1.5 times Smn protein vs DMSO vehicle control; for maximum fold (Fold) increase of Smn protein: 7-point concentration data, fold relative to vehicle control
Protocol: The SMN HTRF (homogeneous time resolved fluorescence) assay is used to quantify the level of Smn protein in SMA patient fibroblast cells treated with test compounds.
Protocol. Cells are thawed and cultured in DMEM-10% FBS for 72 hours. Cells are trypsinized, counted and re-suspended to a concentration of 25,000 cells/mL in DMEM-10% FBS. The cell suspension is plated at 5,000 cells per well in a 96 well microtiter plate and incubated for 3 to 5 hours. […] Test compounds are serially diluted 3.16-fold in 100% DMSO to generate a 7-point concentration curve. 1 μL of test compound solution is transferred to cell-containing wells and cells are incubated for 48 hours in a cell culture incubator (37° C., 5% CO2, 100% relative humidity). Triplicate samples are set up for each test compound concentration. After 48 hours, the supernatant is removed from the wells and 25 μL of the RIPA lysis buffer, containing protease inhibitors, is added to the wells and incubated with shaking at room temperature for 1 hour. 25 μL of the diluent is added and then 35 μL of the resulting lysate is transferred to a 384-well plate, where each well contains 5 μL of the antibody solution (1:100 dilution of anti-SMN d2 and anti-SMN kryptate in SMN reconstitution buffer). The plate is centrifuged for 1 minute to bring the solution to the bottom of the wells, then incubated overnight at room temperature. Fluorescence for each well of the plate at 665 nm and 620 nm is measured on an EnVision multilabel plate reader (Perkin-Elmer).
The normalized fluorescence signal is calculated for each sample, Blank and vehicle control well by dividing the signal at 665 nm by the signal at 620 nm. Normalizing the signal accounts for possible fluorescence quenching due to the matrix effect of the lysate. The ΔF value (a measurement of Smn protein abundance as a percent value) for each sample well is calculated by subtracting the normalized average fluorescence for the Blank control wells from the normalized fluorescence for each sample well, then dividing this difference by the normalized average fluorescence for the Blank control wells and multiplying the resulting value by 100. The ΔF value for each sample well represents the Smn protein abundance from test compound-treated samples. The ΔF value for each sample well is divided by the ΔF value for the vehicle control wells to calculate the fold increase in Smn protein abundance relative to the vehicle control.
For compounds of Formula (I) or a form thereof disclosed herein, Table 9 provides the EC1.5× for Smn protein expression that was obtained from the 7-point concentration data generated for each test compound according to the procedure of Biological Example 7. The term “EC1.5× for Smn protein expression” is defined as that concentration of test compound that is effective in producing 1.5 times the amount of Smn protein in an SMA patient fibroblast cell compared to the amount produced from the DMSO vehicle control. An EC1.5× for Smn protein expression between >3 μM and ≤10 μM is indicated by one star (*), an EC1.5× between >1 μM and ≤3 μM is indicated by two stars (**), an EC1.5× between >0.3 μM and ≤1 μM is indicated by three stars (***) and an EC1.5x≤0.3 μM is indicated by four stars (****).
For compounds of Formula (I) or a form thereof disclosed herein, Table 10 provides the maximum fold (Fold) increase of Smn protein that was obtained from the 7-point concentration data generated for each test compound according to the procedure of Biological Example 7. A maximum fold increase of ≤1.2 is indicated by one star (*), a fold increase between >1.2 and ≤1.35 is indicated by two stars (**), a fold increase between >1.35 and ≤1.5 is indicated by three stars (***), a fold increase between >1.5 and ≤1.65 is indicated by four stars (****) and a fold increase >1.65 is indicated by five stars (*****).

Row | Structure (SMILES) | EC (1.5-fold increase) [1] [µM] | EC1.5x for Smn protein expression [2] | maximum fold (Fold) increase of Smn protein [2]
1 | Cc1cn2cc(-c3cc(=O)n4cc(N5CCN(C)CC5)ccc4n3)cc(C(F)(F)F)c2n1 [Compound 806, 7-(4-methylpiperazin-1-yl)-2-[2-methyl-8-(trifluoromethyl)imidazo[1,2-a]pyridin-6-yl]-4H-pyrido[1,2-a]pyrimidin-4-one] | < 0.1 | **** (an EC1.5x≤0.3 μM is indicated by four stars (****)) | ***** (a fold increase >1.65 is indicated by five stars (*****))
2 | Cc1cn2cc(-c3cc(=O)n4cc(N5CCN(C)CC5)ccc4n3)cc(C#N)c2n1 [Compound 807, 2-methyl-6-[7-(4-methylpiperazin-1-yl)-4-oxo-4H-pyrido[1,2-a]pyrimidin-2-yl]imidazo[1,2-a]pyridine-8-carbonitrile] | < 0.1 | **** (an EC1.5x≤0.3 μM is indicated by four stars (****)) | ***** (a fold increase >1.65 is indicated by five stars (*****))
3 | CN1CCCN(c2ccc3nc(-c4ccc5c(cnn5C)c4)cc(=O)n3c2)CC1 [Compound 492, 7-(4-methyl-1,4-diazepan-1-yl)-2-(1-methyl-1H-indazol-5-yl)-4H-pyrido[1,2-a]pyrimidin-4-one] | 0.3 to 1 | ** (an EC1.5× between >1 μM and ≤3 μM is indicated by two stars (**)) | **** (a fold increase between >1.5 and ≤1.65 is indicated by four stars (****))
4 | CCN1CC=C(c2cc(C)c3nc(-c4ccc(OC)c(OC)c4)cc(=O)n3c2)CC1 [Compound 388, 2-(3,4-dimethoxyphenyl)-7-(1-ethyl-1,2,3,6-tetrahydropyridin-4-yl)-9-methyl-4H-pyrido[1,2-a]pyrimidin-4-one] | < 0.1 |  | *** (a fold increase between >1.35 and ≤1.5 is indicated by three stars (***))
5 | CCc1nc(C)cn2nc(-c3cc(=O)n4cc(C5CCNCC5)ncc4n3)cc12 [Compound 653, 2-(4-ethyl-6-methylpyrazolo[1,5-a]pyrazin-2-yl)-7-(piperidin-4-yl)-4H-pyrazino[1,2-a]pyrimidin-4-one] | < 0.1 | **** (an EC1.5x≤0.3 μM is indicated by four stars (****)) | ***** (a fold increase >1.65 is indicated by five stars (*****))
6 | Cc1cn2nc(-c3cc(=O)n4cc(N5CCN[C@H](C)C5)ccc4n3)cc2c(C)n1 [Compound 335, 2-(4,6-dimethylpyrazolo[1,5-a]pyrazin-2-yl)-7-[(3R)-3-methylpiperazin-1-yl]-4H-pyrido[1,2-a]pyrimidin-4-one] | < 0.1 | **** (an EC1.5x≤0.3 μM is indicated by four stars (****)) | ***** (a fold increase >1.65 is indicated by five stars (*****))
7 | Cc1cn2cc(-c3cc(=O)n4cc(N5CCN[C@H](C)C5)ccc4n3)cc2c(C)n1 [Compound 713, 2-(1,3-dimethylpyrrolo[1,2-a]pyrazin-7-yl)-7-[(3R)-3-methylpiperazin-1-yl]-4H-pyrido[1,2-a]pyrimidin-4-one] | < 0.1 | **** (an EC1.5x≤0.3 μM is indicated by four stars (****)) | ***** (a fold increase >1.65 is indicated by five stars (*****))
8 | Cc1nc2cc(-c3cc(=O)n4cc(N5CCN[C@@H](C)C5)ccc4n3)ccc2o1 [Compound 156, 2-(2-methyl-1,3-benzoxazol-5-yl)-7-[(3S)-3-methylpiperazin-1-yl]-4H-pyrido[1,2-a]pyrimidin-4-one] | 0.3 to 1 |  | *** (a fold increase between >1.35 and ≤1.5 is indicated by three stars (***))
